The record followed here is patent US12012410B2, “Substituted pyrazolo[1,5-a]pyrazines for spinal muscular atrophy” (REBORNA BIOSCIENCES, INC., priority 2018, dated 2024).

For this assay, the system named is FL-SMN mRNA (SMN transcript containing exons 7 and 8). Kind of assay: Live-cell assay to measure changes in FL-SMN mRNA levels (qPCR) after exposure to the compounds. In kind it is cell-based, human. The conditions noted are these: fibroblasts derived from patients SMA (GM03813); 24 hours incubation. A digest of the protocol: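 SMA patient fibroblasts (GM03813) in DMEM/10% FBS were treated with compound (0.1% DMSO final) for 24 h. FL-SMN and Δ7 mRNA were measured by RT-qPCR against oligo DNA standard curves and normalised to GAPDH. Values are % of the DMSO control, binned by asterisk from ≥100% to ≥180%.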
On the technique in general: Real-time PCR tracks product formation cycle by cycle.

As for `Cc1nc(C)c2cc(-c3nc4ccc(N5CCN(C)CC5)cc4c(=O)[nH]3)nn2c1C` [Example 54, 6-(4-methylpiperazin-1 - yl)-2-(4,6,7-trimethylpyrazolo[1,5-a]pyrazin-2-yl)quinazolin-4(3H)-one], the “Percentage of increase (FL-SMN mRNA standardized against GAPDH, DMSO control set as 100%)” value is listed as “* (equal to or higher than 100% but lower than 120%)”.

On to `Cc1cn2cc(-c3nc4ccc(N5CCN(C)CC5)cc4c(=O)[nH]3)cc(C)c2n1` [Example 55, 2-(2,8-dimethylimidazo[1,2-a]pyridin-6-yl)-6-(4-methylpiperazin-1-yl)quinazolin-4(3H)-one], for which the “Percentage of increase (FL-SMN mRNA standardized against GAPDH, DMSO control set as 100%)” value is on record as “** (equal to or higher than 120% but lower than 150%)”.

In the case of `Cc1cn2cc(-c3nc4cc(F)c(N5CCN(C)CC5)cc4c(=O)[nH]3)cc(F)c2n1` [Example 56, 7-fluoro-2-(8-fluoro-2-methylimidazo[1,2-a]pyridin-6-yl)-6-(4-methylpiperazin-1-yl)quinazolin-4(3H)-one], the “Percentage of increase (FL-SMN mRNA standardized against GAPDH, DMSO control set as 100%)” value is reported as “** (equal to or higher than 120% but lower than 150%)”.

Turning to `Cc1cn2cc(-c3nc4cc(F)c(N5CCN(C)CC5)cc4c(=O)[nH]3)cc(C)c2n1` [Example 57, 2-(2,8-dimethylimidazo[1,2-a]pyridin-6-yl)-7-fluoro-6-(4-methylpiperazin-1 - yl)quinazolin-4(3H)-one], the “Percentage of increase (FL-SMN mRNA standardized against GAPDH, DMSO control set as 100%)” value is “** (equal to or higher than 120% but lower than 150%)”.

Turning to `Cc1cn2cc(-c3nc4ccc(N5CCN(C)CC5)cc4c(=O)[nH]3)ccc2n1` [Example 58, 2-(2-methylimidazo[1,2-a]pyridin-6-yl)-6-(4-methylpiperazin-1-yl)quinazolin-4(3H)-one], the “Percentage of increase (FL-SMN mRNA standardized against GAPDH, DMSO control set as 100%)” value is “** (equal to or higher than 120% but lower than 150%)”.

Consider `Cc1nn(C)c2cc(F)c(-c3nc4ccc(N5CCN(C)CC5)cc4c(=O)[nH]3)cc12` [Example 59, 2-(6-fluoro-1,3-dimethyl-1H-indazol-5-yl)-6-(4-methylpiperazin-1-yl)quinazolin-4(3H)-one], for which the “Percentage of increase (FL-SMN mRNA standardized against GAPDH, DMSO control set as 100%)” value is “* (equal to or higher than 100% but lower than 120%)”.

With `Cc1cn2cc(-c3ccc4nc(C5CCN(C)CC5)[nH]c(=O)c4c3C)ccc2n1` [Example 60, 5-methyl-6-(2-methylimidazo[1,2-a]pyridin-6-yl)-2-(1-methylpiperidin-4-yl)quinazolin-4(3H)-one], the “Percentage of increase (FL-SMN mRNA standardized against GAPDH, DMSO control set as 100%)” value is “** (equal to or higher than 120% but lower than 150%)”.

With `Cc1cn2c(C)c(-c3ccc4nc(C5CCN(C)CC5)[nH]c(=O)c4c3)ccc2n1` [Example 61, 6-(2,5-dimethylimidazo[1,2-a]pyridin-6-yl)-2-(1-methylpiperidin-4-yl)quinazolin-4(3H)-one], the “Percentage of increase (FL-SMN mRNA standardized against GAPDH, DMSO control set as 100%)” value was “* (equal to or higher than 100% but lower than 120%)”.

Turning to `Cc1cn2cc(-c3cc4c(=O)[nH]c(C5CCN(C)CC5)nc4cc3C)ccc2n1` [Example 62, 7-methyl-6-(2-methylimidazo[1,2-a]pyridin-6-yl)-2-(1-methylpiperidin-4-yl)quinazolin-4(3H)-one], the “Percentage of increase (FL-SMN mRNA standardized against GAPDH, DMSO control set as 100%)” value is listed as “* (equal to or higher than 100% but lower than 120%)”.

For the molecule `Cc1cn2cc(-c3ccc4nc(C5CCN(C)CC5)[nH]c(=O)c4c3)c(C)cc2n1` [Example 63, 6-(2,7-dimethylimidazo[1,2-a]pyridin-6-yl)-2-(1-methylpiperidin-4-yl)quinazolin-4(3H)-one], the “Percentage of increase (FL-SMN mRNA standardized against GAPDH, DMSO control set as 100%)” value is recorded as “* (equal to or higher than 100% but lower than 120%)”.

For the molecule `Cc1cn2cc(-c3nc4ccc(N5CCN(C)CC5)cc4c(=O)[nH]3)cc2c(C)n1` [Example 64, 2-(1,3-dimethylpyrrolo[1,2-a]pyrazin-7-yl)-6-(4-methylpiperazin-1-yl)quinazolin-4(3H)-one], the “Percentage of increase (FL-SMN mRNA standardized against GAPDH, DMSO control set as 100%)” value was “* (equal to or higher than 100% but lower than 120%)”.

Turning to `CN1CCC(c2nc3ccc(-c4ccc5nccn5c4)cc3c(=O)[nH]2)CC1` [Example 65, 6-(imidazo[1,2-a]pyridin-6-yl)-2-(1-methylpiperidin-4-yl)quinazolin-4(3H)-one], the “Percentage of increase (FL-SMN mRNA standardized against GAPDH, DMSO control set as 100%)” value is “** (equal to or higher than 120% but lower than 150%)”.

On to `CN1CCC(c2nc3ccc(-c4ccc5nc(C(F)(F)F)cn5c4)cc3c(=O)[nH]2)CC1` [Example 66, 2-(1-methylpiperidin-4-yl)-6-[2-(trifluoromethyl)imidazo [1,2-a]pyridin-6-yl]quinazolin-4(3H)-one], for which the “Percentage of increase (FL-SMN mRNA standardized against GAPDH, DMSO control set as 100%)” value is “* (equal to or higher than 100% but lower than 120%)”.

In the case of `Cc1nc2ccc(-c3ccc4nc(C5CCN(C)CC5)[nH]c(=O)c4c3)cn2c1C` [Example 67, 6-(2,3-dimethylimidazo[1,2-a]pyridin-6-yl)-2-(1-methylpiperidin-4-yl)quinazolin-4(3H)-one], the “Percentage of increase (FL-SMN mRNA standardized against GAPDH, DMSO control set as 100%)” value was “** (equal to or higher than 120% but lower than 150%)”.

`CCc1cn2cc(-c3ccc4nc(C5CCN(C)CC5)[nH]c(=O)c4c3)ccc2n1` [Example 68, 6-(2-ethylimidazo[1,2-a]pyridin-6-yl)-2-(1-methylpiperidin-4-yl)quinazolin-4(3H)-one]: the “Percentage of increase (FL-SMN mRNA standardized against GAPDH, DMSO control set as 100%)” value is reported as “* (equal to or higher than 100% but lower than 120%)”.

Regarding `Cc1cn2cc(-c3ccc4nc(C5CCN(C)CC5)n(C)c(=O)c4c3)ccc2n1` [Example 69, 3-methyl-6-(2-methylimidazo[1,2-a]pyridin-6-yl)-2-(1-methylpiperidin-4-yl)quinazolin-4(3H)-one], the “Percentage of increase (FL-SMN mRNA standardized against GAPDH, DMSO control set as 100%)” value is listed as “** (equal to or higher than 120% but lower than 150%)”.

Take `Cc1cn2cc(-c3ccc4c(c3)c(=O)nc(C3CCN(C)CC3)n4C)ccc2n1` [Example 70, 1-methyl-6-(2-methylimidazo[1,2-a]pyridin-6-yl)-2-(1-methylpiperidin-4-yl)quinazolin-4(1H)-one]: the “Percentage of increase (FL-SMN mRNA standardized against GAPDH, DMSO control set as 100%)” value is “* (equal to or higher than 100% but lower than 120%)”.

In the case of `Cc1nc2c(C)cc(-c3ccc4nc(C5CCN(C)CC5)[nH]c(=O)c4c3)cc2o1` [Example 71, 6-(2,4-dimethyl-1,3-benzoxazol-6-yl)-2-(1-methylpiperidin-4-yl)quinazolin-4(3H)-one], the “Percentage of increase (FL-SMN mRNA standardized against GAPDH, DMSO control set as 100%)” value was “* (equal to or higher than 100% but lower than 120%)”.

As for `Cc1nc2cc(-c3ccc4nc(C5CCN(C)CC5)[nH]c(=O)c4c3)ccc2o1` [Example 72, 6-(2-methyl-1,3-benzoxazol-5-yl)-2-(1-methylpiperidin-4-yl)quinazolin-4(3H)-one], the “Percentage of increase (FL-SMN mRNA standardized against GAPDH, DMSO control set as 100%)” value is recorded as “* (equal to or higher than 100% but lower than 120%)”.

For `Cc1cn2cc(-c3ccc4nc(C5CCN(CC(F)(F)F)CC5)[nH]c(=O)c4c3)ccc2n1` [Example 73, 6-(2-methylimidazo[1,2-a]pyridin-6-yl)-2-[1-(2,2,2-trifluoroethyl)piperidin-4-yl]quinazolin-4(3H)-one], the “Percentage of increase (FL-SMN mRNA standardized against GAPDH, DMSO control set as 100%)” value is reported as “* (equal to or higher than 100% but lower than 120%)”.

Turning to `Cc1cn2cc(-c3ccc4nc(C5CCN(C6CC6)CC5)[nH]c(=O)c4c3)ccc2n1` [Example 74, 2-(1-cyclopropylpiperidin-4-yl)-6-(2-methylimidazo[1,2-a]pyridin-6-yl)quinazolin-4(3H)-one], the “Percentage of increase (FL-SMN mRNA standardized against GAPDH, DMSO control set as 100%)” value is listed as “** (equal to or higher than 120% but lower than 150%)”.

With `Cc1cn2cc(-c3ccc4nc(C5CCN(C)CC5)[nH]c(=O)c4c3)cc(C(F)(F)F)c2n1` [Example 75, 2-(1-methylpiperidin-4-yl)-6-[2-methyl-8-(trifluoromethyl)imidazo [1,2-a]pyridin-6-yl]quinazolin-4(3H)-one], the “Percentage of increase (FL-SMN mRNA standardized against GAPDH, DMSO control set as 100%)” value is on record as “** (equal to or higher than 120% but lower than 150%)”.

As for `COc1cnc(-c2nc3ccc(N4CCN(C)CC4)cc3c(=O)[nH]2)cc1C` [Example 76, 2-(5-methoxy-4-methylpyridin-2-yl)-6-(4-methylpiperazin-1-yl)quinazolin-4(3H)-one], the “Percentage of increase (FL-SMN mRNA standardized against GAPDH, DMSO control set as 100%)” value was “* (equal to or higher than 100% but lower than 120%)”.

`CN1CCC(c2nc3ccc(-c4ccc(-c5cnn(C)c5)cc4)cc3c(=O)[nH]2)CC1` [Example 77, 2-(1-methylpiperidin-4-yl)-6-[4-(1-methyl-1H-pyrazol-4-yl)phenyl]quinazolin-4(3H)-one]: the “Percentage of increase (FL-SMN mRNA standardized against GAPDH, DMSO control set as 100%)” value is “* (equal to or higher than 100% but lower than 120%)”.

For `Cc1cn2nc(-c3nc4ccc(N5CCN(C)CC5=O)cc4c(=O)[nH]3)cc2c(C)n1` [Example 78, 2-(4,6-dimethylpyrazolo[1,5-a]pyrazin-2-yl)-6-(4-methyl-2-oxopiperazin-1-yl)quinazolin-4(3H)-one], the “Percentage of increase (FL-SMN mRNA standardized against GAPDH, DMSO control set as 100%)” value was “* (equal to or higher than 100% but lower than 120%)”.

As to `Cc1cn2nc(-c3nc4ccc(N5CCOCC5)cc4c(=O)[nH]3)cc2c(C)n1` [Example 79, 2-(4,6-dimethylpyrazolo[1,5-a]pyrazin-2-yl)-6-(morpholin-4-yl)quinazolin-4(3H)-one], the “Percentage of increase (FL-SMN mRNA standardized against GAPDH, DMSO control set as 100%)” value was “* (equal to or higher than 100% but lower than 120%)”.

Consider `Cc1cn2ccc(-c3ccc4ncn(C5CCN(C)CC5)c(=O)c4c3)cc2n1` [Example 80, 6-(2-methylimidazo[1,2-a]pyridin-7-yl)-3-(1-methylpiperidin-4-yl)quinazolin-4(3H)-one], for which the “Percentage of increase (FL-SMN mRNA standardized against GAPDH, DMSO control set as 100%)” value was “* (equal to or higher than 100% but lower than 120%)”.

For `Cc1cn2cc(-c3ccc4nc(C5CCOCC5)[nH]c(=O)c4c3)ccc2n1` [Example 81, 6-(2-methylimidazo[1,2-a]pyridin-6-yl)-2-(tetrahydro-2H4-pyran-4-yl)quinazolin-4(3H)-one], the “Percentage of increase (FL-SMN mRNA standardized against GAPDH, DMSO control set as 100%)” value is given as “* (equal to or higher than 100% but lower than 120%)”.
